Patent publication US8710049B2, “Diaminocyclohexane compounds and uses thereof” (Bristol-Myers Squibb Company, priority 2011, dated 2014)

Target: T1, Y4 receptor (Homo sapiens, UniProt P50391)
Experiment: not given
Details: background statement; cited from earlier work

T1 sequence (P50391 whole entry): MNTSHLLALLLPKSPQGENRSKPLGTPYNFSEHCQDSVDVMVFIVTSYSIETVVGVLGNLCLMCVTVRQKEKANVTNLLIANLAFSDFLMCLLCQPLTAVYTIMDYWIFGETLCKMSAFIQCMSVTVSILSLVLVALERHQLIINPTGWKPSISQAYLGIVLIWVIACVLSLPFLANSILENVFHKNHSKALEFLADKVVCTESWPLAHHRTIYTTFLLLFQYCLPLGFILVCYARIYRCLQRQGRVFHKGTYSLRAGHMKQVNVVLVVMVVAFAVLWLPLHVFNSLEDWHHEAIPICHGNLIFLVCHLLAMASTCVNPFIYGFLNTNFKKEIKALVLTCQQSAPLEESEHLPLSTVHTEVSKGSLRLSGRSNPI

| Compound | affinity for Y4 receptor |
| --- | --- |
| PYY: naturally secreted 36 amino acid, C-terminally amidated PP-fold peptide | nanomolar affinity |

Target: T1, Y4 receptor
Experiment: NPY4 cAMP HTRF Agonist Assay
Assay type: cell-based
Set-up: expressed in transfected cells
Details: human Y4 stable CHO clonal cells; inhibitory cAMP assay with Forskolin and IBMX, 30 minutes at room temperature
Experimental: NPY4 cAMP HTRF Agonist Assay
The functionality of the compound at Y4 receptor was analyzed using an inhibitory cAMP assay (CISBIO, HTRF cAMP kit #62AM4PEC) to measure the Gi activation by Y4 agonism.
The human Y4 stable CHO clonal cells were maintained in culture medium (F-12 containing 10% Fetal Bovine Serum, […] GENETICIN®, […] Zeocin). Before the experiment, 5 μL of 1 uM Forskolin (Sigma, # F6886) and 100 uM IBMX (Sigma, #15879) in PBS buffer were added into 384-well plates (PE, Proxi-plate) that were pre-dotted with […] compounds. The cells were removed from the flasks by Cellstripper, counted and adjusted to 1.0×10^6 cells/mL in PBS buffer, and added 5 μL/well (5000 cells/well) into the above 384-well plates. The cells were then covered and incubated for 30 minutes at room temperature. After incubation, 5 μL/well of D2-conjugate in HTRF lysis buffer was first added, followed by adding 5 μL/well of anti-cAMP Cryptate in HTRF lysis buffer. The plates were incubated for another 1 hour at room temperature and read on the EnVision Multilabel Plate Reader.

| EC50 | Compound |
| --- | --- |
| 515 nM | Cc1ccc(COC(=O)N[C@@H]2CCCC[C@H]2N[C@H]2CCCN(c3ccc(C(F)(F)F)cc3)C2)cc1 [Example 63] |
| 610 nM | N#Cc1ccc(N2CCC[C@H](N[C@@H]3CCCC[C@H]3NC(=O)Nc3cccc(O)c3)C2)cc1 [Example 36, 1-((1R,2R)-2-((S)-1-(4-Cyanophenyl)piperidin-3-ylamino)cyclohexyl)-3-(3-hydroxyphenyl)urea] |
| 46 nM | O=C(Nc1ccc(OC(F)(F)F)cc1)N[C@@H]1CCCC[C@H]1N[C@H]1CCCN(c2ccc([N+](=O)[O-])cc2)C1 [Example 3, 1-((1R,2R)-2-((S)-1-(4-Nitrophenyl)piperidin-3-ylamino)cyclohexyl)-3-(4-(trifluoromethoxy)phenyl)urea] |
| 3620 nM | N#Cc1ccc(N2CCC[C@H](N[C@@H]3CCCC[C@H]3NC(=O)Nc3ccc(C(F)(F)F)cc3)C2)cc1 [Example 56, 1-((1R,2R)-2-((S)-1-(4-Cyanophenyl)piperidin-3-ylamino)cyclohexyl)-3-(4-(trifluoromethyl)phenyl)urea] |
| 330 nM | Cn1cc(CC(=O)N[C@@H]2CCCC[C@H]2N[C@H]2CCCN(c3ccc(C#N)cc3)C2)c2ccccc21 [Example 10, N-((1R,2R)-2-((S)-1-(4-Cyanophenyl)piperidin-3-ylamino)cyclohexyl)-2-(1-methyl-1H-indol-3-yl)acetamide] |
| 575 nM | COc1ccc(COC(=O)N[C@@H]2CCCC[C@H]2N[C@H]2CCCN(c3ccc(C#N)cc3)C2)cc1 [Example 34, 4-Methoxybenzyl (1R,2R)-2-((S)-1-(4-cyanophenyl)piperidin-3-ylamino)cyclohexylcarbamate] |
| 72 nM | N#Cc1ccc(N2CCC[C@H](N[C@@H]3CCCC[C@H]3NC(=O)OCc3ccc(OC(F)(F)F)cc3)C2)cc1 [Example 16, 4-(Trifluoromethoxy)benzyl (1R,2R)-2-((S)-1-(4-cyanophenyl)piperidin-3-ylamino)cyclohexylcarbamate] |

Further lines, the compound ahead of its results:

| Compound | EC50 |
| --- | --- |
| N#Cc1cc(N2CCC[C@H](N[C@@H]3CCCC[C@H]3NC(=O)Nc3ccccc3)C2)ccn1 [Example 45, 1-((1R,2R)-2-((S)-1-(2-Cyanopyridin-4-yl)piperidin-3-ylamino)cyclohexyl)-3-phenylurea] | 1460 nM |
| O=C(Nc1ccc(OC(F)(F)F)cc1)N[C@@H]1CCCC[C@H]1N[C@H]1C[C@@H]2C[C@H]1N(c1ccc([N+](=O)[O-])cc1)C2 [Example 4, 1-((1R,2R)-2-((1R,4R,6S)-2-(4-Nitrophenyl)-2-azabicyclo[2.2.1]heptan-6-ylamino)cyclohexyl)-3-(4-(trifluoromethoxy)phenyl)urea] | 25 nM |
| O=C(Nc1ccccc1)N[C@@H]1CCCC[C@H]1N[C@H]1CCCN(c2ccc([N+](=O)[O-])cc2)C1 [Example 1, 1-((1R,2R)-2-((S)-1-(4-Nitrophenyl)piperidin-3-ylamino)cyclohexyl)-3-phenyl urea] | 81 nM |
| CCOC(=O)c1ccc(N2CC[C@H](N[C@@H]3CCCC[C@H]3NC(=O)OCc3ccccc3)C2)cc1 [Example 32, Ethyl 4-((S)-3-((1R,2R)-2-(benzyloxycarbonylamino)cyclohexylamino)pyrrolidin-1-yl)benzoate] | 540 nM |
| O=C(Nc1ccccc1)N[C@@H]1CCCC[C@H]1N[C@H]1CCCN(c2ccc([N+](=O)[O-])cc2)CC1 [Example 52, 1-((1R,2R)-2-((S)-1-(4-Nitrophenyl)azepan-4-ylamino)cyclohexyl)-3-phenylurea] | 2890 nM |
| O=C(Nc1cc(C(F)(F)F)cc(C(F)(F)F)c1)N[C@@H]1CCCC[C@H]1N[C@H]1CCCN(c2ccc(C(F)(F)F)cc2)C1 [Example 89] | 2340 nM |
| O=C(N[C@@H]1CCCC[C@H]1N[C@H]1CCCN(c2ccc(-c3nc4ccccc4o3)cc2)C1)OCc1ccccc1 [Example 43, Benzyl (1R,2R)-2-((S)-1-(4-(benzo[d]oxazol-2-yl)phenyl)piperidin-3-ylamino)cyclohexylcarbamate] | 1400 nM |
| C[C@]1(N[C@@H]2CCCC[C@H]2NC(=O)OCc2ccccc2)CCCN(c2ccc([N+](=O)[O-])cc2)C1 [Example 58, Benzyl (1R,2R)-2-((S)-3-methyl-1-(4-nitrophenyl)piperidin-3-ylamino)cyclohexylcarbamate] | 10 nM |
| Cc1nnc(-c2ccc(N3CCC[C@H](N[C@@H]4CCCC[C@H]4NC(=O)OCc4ccccc4)C3)cc2)o1 [Example 7, Benzyl (1R,2R)-2-((S)-1-(4-(5-methyl-1,3,4-oxadiazol-2-yl)phenyl)piperidin-3-ylamino)cyclohexylcarbamate] | 72 nM |
